Measured values: patent publication US20100022626A1, “Modulators of cell migration and methods of identifying same” (priority 2005, published 2010)

System: H1299 cells
Assay: Phagokinetic track (PKT) assay of H1299 cells treated with cytoskeletal drugs
Type: cell-based
Details: for Track area: 4 μM Latrunculin A, 2.5 μM Nocodazole or 100 ng/ml PMA, 5 h total; for Track area / Axis ratio / Effective velocity / Major axis / Migration velocity / Minor axis / Perimeter / Roughness / Solidity: mean ± SD; for Effect on cell motility (montage images, FIG. 6): Latrunculin A 4 μM, Nocadazole 2.5 μM, PMA 100 ng/ml; for PKT area compared to control cells: Latrunculin/Nocodazole p=~0, PMA p<0.05; for Axis ratio / Effective velocity / Major axis / Migration velocity / Minor axis / Perimeter / Roughness / Solidity: same treatments
Procedure: Preparation of 96-wellplates: Glass-bottom 96-well plates (Cat. # 7706-2370, Whatmann, Inc., Clifton, N.J., USA) were treated for 2 hours at room temperature with 50 μl of 10 μg/ml fibronectin solution dissolved in PBS (Fibronectin, F-1141; Sigma Chemical Co., St Louis, Mo., USA). The wells were then washed twice with PBS and coated with 340 nm diameter white polystyrene latex beads (Product no. 2-300; batch no. 1344); Interfacial Dynamics Corporation-Molecular Probes Microspheres Technologies, USA. The bead suspension (3.2 ml) was centrifuged for 5 minutes at 20,800×g, and resuspended in 4 ml PBS by vortex, until all visible bead clumps were dispersed. The sedimentation procedure was then repeated, after which the beads were resuspended in 7 ml PBS, to a final concentration of […]. Aliquots of 70 μl of the bead suspension were added to each well, pre-coated with fibronectin, in the 96-well plate, and incubated at 37° C. for 2 hours, followed by gentle washing (×5 times) with PBS using a plate washer (Colombus Plus, Tecan, Switzerland). Before cells were plated, the PBS was replaced with 50 μl culture medium suitable for the particular cell type used in the assay (see FIG. 1).
Cell preparation for the phagokinetic track assay: MCF7 (ATCC-HTB-22), MDA-MB-231 (ATCC-HBT-26), and B16-F10 (ATCC-CRL-6475) cells were grown in Dulbeco's Modified Eagle's Medium (DMEM). H1299 cells (ATCC-CRL-5803) were grown in RPMI-1640. Both culture media were supplemented with 10% FCS, 2 mM glutamine, 100 international units/ml penicillin and 100 μg/ml streptomycin (Biological Industries, Beit Haemek, Israel), and placed in a 5% CO2 humidified incubator kept at 37° C. For the PKT assay, 200-400 cells (a 50 μl volume) were cultured in each well. Depending on the track dimensions, the number of the plated cells was calibrated to maximize the number of single cell tracks, yet minimize the number of intersecting tracks.
Phagokinetic track assay: In order to characterize the motile behavior of the various cell lines, MCF7, MDA-MB-231, B16-F10 and H1299 cells were plated on a monolayer of polystyrene beads. All were incubated at 37° C., 5% CO2 for 7 hours, except for the H1299 cells, which were incubated for 5 hours. The first three cell lines were grown in DMEM, and H1299 cells were grown in RPMI 1640 medium, Both media were supplemented with 10% FCS and penicillin/streptomycin antibiotic. At the end of the incubation period, cells were fixed with 3% PFA. Images were taken with a 10× objective, using the autofocus screening microscope system.
Automated microscopy: Commercially-available plates display large deviations from a plane, often exceeding 200 μm, which require adjustment of the focal plane for every image. Commonly-used autofocusing procedures, which are based on finding the highest contrast image among a focal series, are slow and not robust, particularly when low-contrast images, such as those yielded by a monolayer of micro-beads, are used. The phagokinetic tracks were therefore recorded using a cell-screening microscope described in detail (Paran et al., Methods in Enzymology, in press). The rapid, automated collection of sharp, in-focus PKT images was aided by a laser autofocus device (Liron et al., 2006, J Microsc 221, 145-51). The laser autofocus device enables precise location of the substrate surface, and guarantees sharp definition of track boundaries.
The microscope operating program and the image acquisition software was written (In-house) as an application within the UCSF Priism environment (http://msg.ucsf.edu/ive). The microscope includes a computer-controlled plate scanning stage (Prior, Cambridge UK) that defines the pattern of coverage of the well area by the individual images. For this application, images were taken using a 10×/0.4 objective, and adjacent fields were stitched together, forming a montage of the entire well, or any desired fraction of the well area. […]

| Structure (SMILES) | Track area | Effect on cell motility (montage images, FIG. 6) (in words) | Axis ratio compared to control cells (in words) | Effective velocity compared to control cells (in words) | Major axis compared to control cells (in words) | Migration velocity compared to control cells (in words) | Minor axis compared to control cells (in words) | Roughness compared to control cells (in words) | PKT area compared to control cells (in words) | Solidity compared to control cells (in words, p<0.05) | Axis ratio | Effective velocity | Major axis | Migration velocity | Minor axis | Perimeter | Roughness | Solidity |
| --- | --- | --- | --- | --- | --- | --- | --- | --- | --- | --- | --- | --- | --- | --- | --- | --- | --- | --- |
| CCCCCCCCCCCCCC(=O)O[C@@H]1[C@@H](C)[C@@]2(O)[C@@H](C=C(CO)C[C@]3(O)C(=O)C(C)=C[C@@H]23)[C@@H]2C(C)(C)[C@]12OC(C)=O [PMA, Phorbol 12-mirysyate 13-acetate] | 14300 ± 9100 μm^2 | increase in cell motility | did not significantly differ | did not significantly differ | did not significantly differ | increased | did not significantly differ | increased | increased | increased | 2.1 ± 0.9 | 46 ± 21 μm/h | 220 ± 104 μm | 59 ± 26 μm/h | 108 ± 42 μm | 695 ± 350 μm | 2.9 ± 1.4 | 0.8 ± 0.1 |
| C/C1=C/C(=O)O[C@@H]2C[C@@H](CC[C@H](C)/C=C\C=C\CC1)O[C@@](O)([C@@H]1CSC(=O)N1)C2 [Latrunculin A] | 5900 ± 3500 μm^2 | inhibited cell motility | reduced |  |  | reduced |  | decreased | reduced |  | 1.5 ± 0.4 | 8 ± 5 μm/h | 121 ± 44 μm | 10 ± 6 μm/h | 79 ± 19 μm | 380 ± 150 μm | 2.0 ± 0.7 | 0.9 ± 0.07 |
| COC(=O)Nc1nc2ccc(C(=O)c3cccs3)cc2[nH]1 [Nocodazole] | 6100 ± 3600 μm^2 | inhibited cell motility | reduced |  |  | reduced |  | decreased | reduced |  | 1.6 ± 0.4 | 14 ± 8 μm/h | 123 ± 43 μm | 17 ± 11 μm/h | 78 ± 18 μm | 385 ± 140 μm | 2.1 ± 0.9 | 0.9 ± 0.07 |
